Source: patent US20240158348A1, “HERBICIDAL CYCLIC AMIDES N-SUBSTITUTED WITH A HALOALKYLSULFONYLANILIDE GROUP” (FMC Corporation, priority 2021, published 2024)

Assays:
Type in all cases: in vivo
[1] = test system: blackgrass (Alopecurus myosuroides); assay: Test C preemergence, blackgrass; settings: 0 is no effect, 100 is complete control
Description: (§1) Seeds of plant species selected from blackgrass (Alopecurus myosuroides), corn (Zea mays), foxtail, giant (giant foxtail, Setaria faberi), goosegrass (Eleusine indica), kochia (Bassia scoparia), oat, wild (wild oat, Avena fatua), pigweed, palmer (palmer amaranth, Amaranthus palmeri), ragweed (common ragweed, Ambrosia artemisiifolia), ryegrass, Italian (Italian ryegrass, Lolium multiflorum), soybean (Glycine max) and wheat (Triticum aestivum) were planted into a blend of loam soil and sand and treated preemergence with a directed soil spray using test chemicals formulated in a non-phytotoxic solvent mixture which included a surfactant.
(§2) At the same time, plants selected from these crop and weed species and also galium (catchweed bedstraw, Galium aparine) and horseweed (Erigeron canadensis) were planted in pots containing the same blend of loam soil and sand and treated with postemergence applications of test chemicals formulated in the same manner. Plants ranged in height from 2 to 10 cm and were in the one- to two-leaf stage for the postemergence treatment. Treated plants and untreated controls were maintained in a greenhouse for 10 or 12 days, after which time all treated plants were compared to untreated controls and visually evaluated for injury. Plant response ratings, summarized in Table A, are based on a 0 to 100 scale where 0 is no effect and 100 is complete control. A dash (-) response means no test result.

corn (Zea mays) [2] = assay: Test C preemergence, corn; settings: 0 is no effect, 100 is complete control
Description: as §1, §2

[3] = test system: foxtail, giant (giant foxtail, Setaria faberi); assay: Test C preemergence, giant foxtail; settings: 0 is no effect, 100 is complete control
Description: as §1, §2

[4] = test system: goosegrass (Eleusine indica); assay: Test C preemergence, goosegrass; settings: 0 is no effect, 100 is complete control
Description: as §1, §2

kochia (Bassia scoparia) [5] = assay: Test C preemergence, kochia; settings: 0 is no effect, 100 is complete control
Description: as §1, §2

[6] = test system: oat, wild (wild oat, Avena fatua); assay: Test C preemergence, wild oat; settings: 0 is no effect, 100 is complete control
Description: as §1, §2

[7] = test system: pigweed, palmer (palmer amaranth, Amaranthus palmeri); assay: Test C preemergence, palmer amaranth; settings: 0 is no effect, 100 is complete control
Description: as §1, §2

[8] = test system: ragweed (common ragweed, Ambrosia artemisiifolia); assay: Test C preemergence, ragweed; settings: 0 is no effect, 100 is complete control
Description: as §1, §2

[9] = test system: ryegrass, Italian (Italian ryegrass, Lolium multiflorum); assay: Test C preemergence, Italian ryegrass; settings: 0 is no effect, 100 is complete control
Description: as §1, §2

soybean (Glycine max) [10] = assay: Test C preemergence, soybean; settings: 0 is no effect, 100 is complete control
Description: as §1, §2

[11] = test system: wheat (Triticum aestivum); assay: Test C preemergence, wheat; settings: 0 is no effect, 100 is complete control
Description: as §1, §2

[12] = test system: blackgrass (Alopecurus myosuroides); assay: Test C postemergence, blackgrass; settings: visual injury, 0 to 100 scale (0 no effect, 100 complete control)
Description: as §1, §2

corn (Zea mays) [13] = assay: Test C postemergence, corn; settings: visual injury, 0 to 100 scale (0 no effect, 100 complete control)
Description: as §1, §2

[14] = test system: foxtail, giant (giant foxtail, Setaria faberi); assay: Test C postemergence, giant foxtail; settings: visual injury, 0 to 100 scale (0 no effect, 100 complete control)
Description: as §1, §2

[15] = test system: goosegrass (Eleusine indica); assay: Test C postemergence, goosegrass; settings: visual injury, 0 to 100 scale (0 no effect, 100 complete control)
Description: as §1, §2

kochia (Bassia scoparia) [16] = assay: Test C postemergence, kochia; settings: visual injury, 0 to 100 scale (0 no effect, 100 complete control)
Description: as §1, §2

[17] = test system: oat, wild (wild oat, Avena fatua); assay: Test C postemergence, wild oat; settings: visual injury, 0 to 100 scale (0 no effect, 100 complete control)
Description: as §1, §2

[18] = test system: pigweed, palmer (palmer amaranth, Amaranthus palmeri); assay: Test C postemergence, palmer amaranth; settings: visual injury, 0 to 100 scale (0 no effect, 100 complete control)
Description: as §1, §2

[19] = test system: ragweed (common ragweed, Ambrosia artemisiifolia); assay: Test C postemergence, ragweed; settings: visual injury, 0 to 100 scale (0 no effect, 100 complete control)
Description: as §1, §2

[20] = test system: ryegrass, Italian (Italian ryegrass, Lolium multiflorum); assay: Test C postemergence, Italian ryegrass; settings: visual injury, 0 to 100 scale (0 no effect, 100 complete control)
Description: as §1, §2

soybean (Glycine max) [21] = assay: Test C postemergence, soybean; settings: visual injury, 0 to 100 scale (0 no effect, 100 complete control)
Description: as §1, §2

[22] = test system: wheat (Triticum aestivum); assay: Test C postemergence, wheat; settings: visual injury, 0 to 100 scale (0 no effect, 100 complete control)
Description: as §1, §2

[23] = test system: galium (catchweed bedstraw, Galium aparine); assay: Test C postemergence, galium; settings: visual injury, 0 to 100 scale (0 no effect, 100 complete control)
Description: as §1, §2

[24] = test system: horseweed (Erigeron canadensis); assay: Test C postemergence, horseweed; settings: visual injury, 0 to 100 scale (0 no effect, 100 complete control)
Description: as §1, §2

[25] = test system: barnyardgrass (Echinochloa crusgalli); assay: Test D flooded paddy test, barnyardgrass; set-up: key: 0 = no effect, 100 = complete control; settings: 250 g ai/ha, Flood; applied to paddy water at 2-leaf stage; visual rating after 13 days; scale 0 (no effect) to 100 (complete control)
Protocol: (§3) Plant species in the flooded paddy test selected from barnyardgrass (Echinochloa crusgalli), ducksalad (Heteranthera limosa), rice (Oryza sativa), and sedge, umbrella (small-flower umbrella sedge, Cyperus difformis) were grown to the 2-leaf stage for testing. At time of treatment, test pots were flooded to 3 cm above the soil surface, treated by application of test compounds directly to the paddy water, and then maintained at that water depth for the duration of the test. Treated plants and controls were maintained in a greenhouse for 13 days, after which time all species were compared to controls and visually evaluated. Plant response ratings, summarized in Table B, are based on a scale of 0 to 100 where 0 is no effect and 100 is complete control. A dash (-) response means no test result.

[26] = test system: ducksalad (Heteranthera limosa); assay: Test D flooded paddy test, ducksalad; set-up: key: 0 = no effect, 100 = complete control; settings: 250 g ai/ha, Flood; applied to paddy water at 2-leaf stage; visual rating after 13 days; scale 0 (no effect) to 100 (complete control)
Protocol: as §3

rice (Oryza sativa) = assay: Test D flooded paddy test, rice; set-up: key: 0 = no effect, 100 = complete control; settings: 250 g ai/ha, Flood; applied to paddy water at 2-leaf stage; visual rating after 13 days; scale 0 (no effect) to 100 (complete control)
Protocol: as §3

[27] = test system: sedge, umbrella (small-flower umbrella sedge, Cyperus difformis); assay: Test D flooded paddy test, umbrella sedge; set-up: key: 0 = no effect, 100 = complete control; settings: 250 g ai/ha, Flood; applied to paddy water at 2-leaf stage; visual rating after 13 days; scale 0 (no effect) to 100 (complete control)
Protocol: as §3

Structure (SMILES): Cc1cc(C)c(N2CCC(OCC3CCCO3)C2=O)cc1NS(=O)(=O)C(F)(F)F (stereo not shown) [Compound 42]
- Plant response rating (0 to 100 scale), Blackgrass ([1]; 31 g ai/ha Preemergence): 20
- Plant response rating (0 to 100 scale), Blackgrass ([1]; 125 g ai/ha Preemergence): 70
- Plant response rating (0 to 100 scale), Corn (corn (Zea mays) [2]; 31 g ai/ha Preemergence): 0
- Plant response rating (0 to 100 scale), Corn (corn (Zea mays) [2]; 125 g ai/ha Preemergence): 70
- Plant response rating (0 to 100 scale), Foxtail, Giant ([3]; 31 g ai/ha Preemergence): 20
- Plant response rating (0 to 100 scale), Foxtail, Giant ([3]; 125 g ai/ha Preemergence): 100
- Plant response rating (0 to 100 scale), Goosegrass ([4]; 31 g ai/ha Preemergence): 50
- Plant response rating (0 to 100 scale), Goosegrass ([4]; 125 g ai/ha Preemergence): 100
- Plant response rating (0 to 100 scale), Kochia (kochia (Bassia scoparia) [5]; 31 g ai/ha Preemergence): 20
- Plant response rating (0 to 100 scale), Kochia (kochia (Bassia scoparia) [5]; 125 g ai/ha Preemergence): 90
- Plant response rating (0 to 100 scale), Oat, Wild ([6]; 31 g ai/ha Preemergence): 0
- Plant response rating (0 to 100 scale), Oat, Wild ([6]; 125 g ai/ha Preemergence): 30
- Plant response rating (0 to 100 scale), Pigweed, Palmer ([7]; 31 g ai/ha Preemergence): 80
- Plant response rating (0 to 100 scale), Pigweed, Palmer ([7]; 125 g ai/ha Preemergence): 100
- Plant response rating (0 to 100 scale), Ragweed ([8]; 31 g ai/ha Preemergence): 10
- Plant response rating (0 to 100 scale), Ragweed ([8]; 125 g ai/ha Preemergence): 60
- Plant response rating (0 to 100 scale), Ryegrass, Italian ([9]; 31 g ai/ha Preemergence): 20
- Plant response rating (0 to 100 scale), Ryegrass, Italian ([9]; 125 g ai/ha Preemergence): 90
- Plant response rating (0 to 100 scale), Soybean (soybean (Glycine max) [10]; 31 g ai/ha Preemergence): 0
- Plant response rating (0 to 100 scale), Soybean (soybean (Glycine max) [10]; 125 g ai/ha Preemergence): 90
- Plant response rating (0 to 100 scale), Wheat ([11]; 31 g ai/ha Preemergence): 30
- Plant response rating (0 to 100 scale), Wheat ([11]; 125 g ai/ha Preemergence): 90
- Blackgrass plant response rating ([12]; 31 g ai/ha Postemergence): 0
- Blackgrass plant response rating ([12]; 125 g ai/ha Postemergence): 50
- Corn plant response rating (corn (Zea mays) [13]; 31 g ai/ha Postemergence): 20
- Corn plant response rating (corn (Zea mays) [13]; 125 g ai/ha Postemergence): 90
- Foxtail, Giant plant response rating ([14]; 31 g ai/ha Postemergence): 20
- Foxtail, Giant plant response rating ([14]; 125 g ai/ha Postemergence): 90
- Goosegrass plant response rating ([15]; 31 g ai/ha Postemergence): 40
- Goosegrass plant response rating ([15]; 125 g ai/ha Postemergence): 90
- Kochia plant response rating (kochia (Bassia scoparia) [16]; 31 g ai/ha Postemergence): 10
- Kochia plant response rating (kochia (Bassia scoparia) [16]; 125 g ai/ha Postemergence): 60
- Oat, Wild plant response rating ([17]; 31 g ai/ha Postemergence): 0
- Oat, Wild plant response rating ([17]; 125 g ai/ha Postemergence): 40
- Pigweed, Palmer plant response rating ([18]; 31 g ai/ha Postemergence): 50
- Pigweed, Palmer plant response rating ([18]; 125 g ai/ha Postemergence): 70
- Ragweed plant response rating ([19]; 31 g ai/ha Postemergence): 40
- Ragweed plant response rating ([19]; 125 g ai/ha Postemergence): 90
- Ryegrass, Italian plant response rating ([20]; 31 g ai/ha Postemergence): 20
- Ryegrass, Italian plant response rating ([20]; 125 g ai/ha Postemergence): 70
- Soybean plant response rating (soybean (Glycine max) [21]; 31 g ai/ha Postemergence): 70
- Soybean plant response rating (soybean (Glycine max) [21]; 125 g ai/ha Postemergence): 80
- Wheat plant response rating ([22]; 31 g ai/ha Postemergence): 0
- Wheat plant response rating ([22]; 125 g ai/ha Postemergence): 80
- Galium plant response rating ([23]; 31 g ai/ha Postemergence): 50
- Galium plant response rating ([23]; 125 g ai/ha Postemergence): 90
- Horseweed plant response rating ([24]; 31 g ai/ha Postemergence): 20
- Horseweed plant response rating ([24]; 125 g ai/ha Postemergence): 80
- Plant response rating, Barnyardgrass [25]: 0
- Plant response rating, Ducksalad [26]: 95
- Plant response rating, Rice (rice (Oryza sativa)): 15
- Plant response rating, Sedge, Umbrella [27]: 90
